Among the data in the SangsterLogP compilation are logP values, retold here.

A short description of this data set: method code SF-AS, from DOI: 10.1002/chin.197535153.
For the molecule `Nc1ccc(C(=O)Oc2ccc(Br)cc2)c(O)c1`, the log partition coefficient (logP) was 3.46.

On to `CC(C)c1ccccc1OC(=O)c1ccc(N)cc1O`, for which the logP was 4.28.

Regarding `Cc1cccc(C)c1OC(=O)c1ccc(N)cc1O`, the logP turned out to be 3.88.

Take `Nc1ccc(C(=O)Oc2cccc(Br)c2)c(O)c1`: the log partition coefficient (logP) was found to be 3.84.

As for `Cc1ccc(OC(=O)c2ccc(N)cc2O)cc1`, the logP turned out to be 3.38.

Molecule `COc1cccc(OC(=O)c2ccc(N)cc2O)c1` came in with a logP of 3.25.

`CC(C)(C)c1ccccc1OC(=O)c1ccc(N)cc1O` displayed a logP of 4.21.

`Nc1ccc(C(=O)Oc2ccccc2Br)c(O)c1` displayed a logP of 3.74.

`Nc1ccc(C(=O)O)c(O)c1`: the logP came out at 0.87.

For `Cc1ccccc1OC(=O)c1ccc(N)cc1O`, the logP was determined as 3.14.

Consider `CC(C)c1ccc(OC(=O)c2ccc(N)cc2O)cc1`, for which the log partition coefficient (logP) was 4.12.

Turning to `Nc1ccc(C(=O)Oc2cccc(C(F)(F)F)c2)c(O)c1`, the log partition coefficient (logP) came out at 3.61.

`Nc1ccc(C(=O)Oc2cccc(Cl)c2)c(O)c1` gave a logP of 3.9.

Take `Nc1ccc(C(=O)Oc2cccc(F)c2)c(O)c1`: the logP amounted to 3.42.

`Nc1ccc(C(=O)Oc2ccc(Cl)cc2Cl)c(O)c1` showed a logP of 4.27.

The molecule `Nc1ccc(C(=O)Oc2ccccc2F)c(O)c1` gave a logP of 3.29.

In turn, `Nc1ccc(C(=O)Oc2ccc(Cl)cc2)c(O)c1` yielded a logP of 3.6.

In the case of `Nc1ccc(C(=O)Oc2ccccc2Cl)c(O)c1`, the logP was 3.72.

Take `Nc1ccc(C(=O)Oc2ccc(F)cc2)c(O)c1`: the logP came out at 3.27.

In the case of `Nc1cccc(OC(=O)c2ccc(N)cc2O)c1`, the logP is 2.08.

The molecule `Nc1ccc(OC(=O)c2ccc(N)cc2O)cc1` had a logP of 2.04.

`COc1ccc(OC(=O)c2ccc(N)cc2O)cc1` showed a lipophilicity (logP) of 3.07.

Consider `COc1ccccc1OC(=O)c1ccc(N)cc1O`, for which the logP worked out at 2.88.

`Cc1cccc(OC(=O)c2ccc(N)cc2O)c1` yielded a lipophilicity (logP) of 3.64.

Molecule `Nc1ccc(C(=O)Oc2ccccc2)c(O)c1` displayed a logP of 3.15.

By logP is commonly meant a log measure of how a compound divides between an organic and an aqueous phase. A high value points to a more lipophilic compound.
